# Assays:
# [1] = test system: MDA MB231 breast cancer cell suspension; assay: Ultrasound-induced DOX transfer from bubble walls into cells (fluorescence); assay type: cell-based; settings: 0.75 mg/ml Dox/0.5% PEG-PLLA/2% PFP formulation; 3-MHz ultrasound, 2 W/cm^2, 20% duty cycle, 30-s exposure
# Source text: (B) Fluorescence image of the MDA MB231 cell (thick arrow) and bubble (thin arrow) aggregates formed in the capillary during a 150-s sonication (corresponding to a 30-s ultrasound exposure time) by 3-MHz ultrasound at a 2 W/cm^2 nominal power density with a 20% duty cycle, with the focus on the bubbles. Ultrasound was applied directly to the slide through the Aquasonic coupling gel. (C) Fluorescence image of another cell aggregate of the same sample, with focus on the cells.
# The elucidation of this problem would allow designing optimal ultrasound protocols. Previous data was re-evaluated. These experiments were performed by sonicating a nanodroplet/cell mixture placed in a plastic capillary (internal diameter 340 μm) of a snake mixer slide.
# [2] = test system: red fluorescent protein labeled MiaPaCa-2 cells; assay: Orthotopic pancreatic cancer model, chemotherapy with or without ultrasound; assay type: in vivo, Mice; settings: no ultrasound treatment
# Method: Orthotopic pancreatic cancer was inoculated surgically in the pancreatic tail. Mice received a single sub-capsular injection of 1×10^6 red fluorescent protein labeled MiaPaCa-2 cells suspended in 0.125 mL serum free media (DMEM). All procedures were done utilizing a 12× Universal S3B microscope.
# Following the primary surgery, high resolution (3456 pixels×2304 pixels) whole body digital images (EOS Digital Rebel, Canon USA, Lake Success, N.Y.) of each mouse were obtained once a week to monitor primary tumor growth and presence of metastases. The red fluorescent protein was visualized with an Illumatool Bright Light System that consisted of a 563 nm excitation filter and a 587 nm emission filter (Model LT-9900, LightTools Research, Encinitas, Calif.). Animals were imaged under nose-cone induced isoflurane general anesthesia. Primary tumor area was quantified using public domain software ImageJ (National Institutes of Health http://rsb.info.nih.gov/ij/).
# Animals were randomly assigned to six groups, six animals each: (1) negative control (injection of PBS); (2) GEM at 140 mg/kg (positive control 1); (3) GEN at 20 mg/kg as PTX (positive control 2); (4) GEM+GEN combination treatment; (5) GEN+ultrasound; (6) GEM+nbGEN+ultrasound. […] Nominal ultrasound intensity was 3.4 W/cm^2, which corresponded to a measured MI=0.59. […]
smiles,measurement,setting,value
"COc1cccc2c1C(=O)c1c(O)c3c(c(O)c1C2=O)C[C@@](O)(C(=O)CO)C[C@@H]3O[C@H]1C[C@H](N)[C@H](O)[C@H](C)O1 [DOX, doxorubicin]",Cell fluorescence after sonication (DOX transfer into cells),[1],acquired strong fluorescence
"Nc1ccn([C@@H]2O[C@H](CO)[C@@H](O)C2(F)F)c(=O)n1 [GEM, gemcitabine]",Ascitis in ultrasound images,[2],clearly visible

# Reference: patent publication US20100178305A1, “ULTRASONIC NANOTHERAPY OF SOLID TUMORS WITH BLOCK COPOLYMERS STABILIZED PERFLUOROCARBON NANODROPLETS” (UNIVERSITY OF UTAH RESEARCH FOUNDATION, priority 2008, published 2010)
